Source: US11548878B2, “Emopamil binding protein binding agent and use thereof” (FUJIFILM Toyama Chemical Co., Ltd., priority 2017, dated 2023)

Target: T1, EBP (Homo sapiens, UniProt Q15125)
T1 construct: A membrane fraction was collected from sigma-1 receptor-deficient human neuroblastoma (SH-SY5Y) cells; endogenous in cells; host or cells: sigma-1 receptor-deficient SH-SY5Y human neuroblastoma cells (membrane fraction)
Experiment: EBP Binding Test (Test Example 1): tritium-labeled Compound A binding to membrane fractions of sigma-1 receptor-deficient SH-SY5Y cells with EBP deleted or overexpressed
Experimental: The binding ability of Compound A to EBP was examined. The test was carried out in accordance with Receptor Signal Transduction Protocols, pp. 135-164 (ISBN 978-1-61779-125-3).
A membrane fraction was collected from sigma-1 receptor-deficient human neuroblastoma (SH-SY5Y) cells, in which EBP was deleted or was overexpressed. Inactivated fetal bovine serum was added to a liquid medium DMEM (Dulbecco's Modified Eagle's Medium) to a final concentration of 10%, and then, a Penicillin-Streptomycin solution (10000 U/mL Penicillin-10000 μg/mL Streptmycin) was added to the medium to a final concentration of 100 U/mL Penicillin-100 μg/mL Streptmycin. The SH-SY5Y cells were cultured in the thus prepared medium.
The method of preparing a membrane fraction is as follows. The cells cultured to a subconfluent state were recovered using a cell scraper, and were then suspended in a 50 mM Tris-HCl (pH=7.4) buffer, followed by disintegrating the cells with an ultrasonic disintegrator. The disintegrated solution was centrifuged (1000 g, 10 minutes), and the supernatant was then ultracentrifuged (28000 rpm, 30 minutes). Thereafter, the obtained precipitate was re-suspended in a 50 mM Tris-HCl (pH=7.4) buffer to obtain a membrane fraction. Regarding the thus prepared membrane fraction, the protein concentration was measured according to a BCA method, and the membrane fraction was then adjusted to a concentration of approximately 1 mg/mL. […]
The receptor binding test method is as follows. […] Thereafter, a liquid scintillation cocktail was added thereto, and the radiation dose (CPM) in each well was then measured using a scintillation counter.
The specific binding ability of Compound A to EBP was determined by subtracting the radiation dose of the control (Non-specific binding) from the radiation dose derived from the tritium-labeled Compound A at each concentration (Total binding). Since the amount of the protein used was different depending on the cell membrane, CPM per μg of the membrane fraction protein used in the reaction was calculated (CPM/protein amount).

T1 sequence (Q15125 2-230 limits assumed): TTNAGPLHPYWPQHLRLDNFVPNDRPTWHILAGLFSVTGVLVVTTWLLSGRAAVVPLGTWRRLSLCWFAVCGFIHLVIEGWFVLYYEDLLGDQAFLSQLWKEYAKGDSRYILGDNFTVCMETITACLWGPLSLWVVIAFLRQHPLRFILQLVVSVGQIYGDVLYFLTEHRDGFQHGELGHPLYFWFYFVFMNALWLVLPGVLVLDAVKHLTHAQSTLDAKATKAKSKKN

`OC1CN(CCCOCCc2ccc3sccc3c2)C1` [Compound A] was tested, and the “affinity for EBP” value (conclusion from FIG. 1 and FIG. 2) was “high affinity”, the “radiation dose (specific binding, CPM/protein amount) in sigma-1 receptor-deficient and EBP-deficient cells compared with sigma-1 receptor-deficient cells” value (membrane fraction of SH-SY5Y cells, tritium-labeled Compound A 0.05-100.0 nM, 37° C. for 2 hours, FIG. 1) was “lower” and the “radiation dose (specific binding, CPM/protein amount) in sigma-1 receptor-deficient and EBP-overexpressing cells compared with sigma-1 receptor-deficient cells” value (membrane fraction of SH-SY5Y cells, tritium-labeled Compound A 0.05-100.0 nM, 37° C. for 2 hours, FIG. 2) was “higher”.
